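Protocol summary: plate cells (96-well), add compound at 5 concentrations, incubate 48 h, interpolate endpoints linearly. Definition used: TGI = concentration required for complete inhibition of growth.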
Columns and labels:
Assay in all cases: NCI tumour cell line growth inhibition, 48 h
NCI-H226 lung = test system: NCI-H226 lung
OVCAR-8 ovarian = test system: OVCAR-8 ovarian
SN12C renal = test system: SN12C renal
A549 NSCLC = test system: A549 NSCLC
RXF 393 renal = test system: RXF 393 renal
UO-31 renal = test system: UO-31 renal
HT29 colon = test system: HT29 colon
DU-145 prostate = test system: DU-145 prostate
NCI-H23 lung = test system: NCI-H23 lung
MALME-3M melanoma = test system: MALME-3M melanoma
CAKI-1 renal = test system: CAKI-1 renal
HCT-15 colon = test system: HCT-15 colon
COLO 205 colon = test system: COLO 205 colon
KM12 colon = test system: KM12 colon
PC-3 prostate = test system: PC-3 prostate
U251 CNS = test system: U251 CNS
NCI/ADR-RES ovarian = test system: NCI/ADR-RES ovarian
A498 renal = test system: A498 renal
T-47D breast = test system: T-47D breast
MDA-MB-231 breast = test system: MDA-MB-231 breast
MDA-N = test system: MDA-N
RPMI-8226 leukemia = test system: RPMI-8226 leukemia
HCT-116 colon = test system: HCT-116 colon
OVCAR-4 ovarian = test system: OVCAR-4 ovarian
NCI-H460 lung = test system: NCI-H460 lung
CCRF-CEM leukemia = test system: CCRF-CEM leukemia
SK-MEL-2 melanoma = test system: SK-MEL-2 melanoma
SW-620 colon = test system: SW-620 colon
TK-10 renal = test system: TK-10 renal
SK-MEL-28 melanoma = test system: SK-MEL-28 melanoma
HCC-2998 colon = test system: HCC-2998 colon
MDA-MB-435 = test system: MDA-MB-435
MCF7 breast = test system: MCF7 breast
OVCAR-3 ovarian = test system: OVCAR-3 ovarian
786-0 renal = test system: 786-0 renal
UACC-257 melanoma = test system: UACC-257 melanoma
SK-OV-3 ovarian = test system: SK-OV-3 ovarian
SNB-19 CNS = test system: SNB-19 CNS
HOP-92 NSCLC = test system: HOP-92 NSCLC
HS 578T breast = test system: HS 578T breast
EKVX NSCLC = test system: EKVX NSCLC
ACHN renal = test system: ACHN renal
IGROV1 ovarian = test system: IGROV1 ovarian
SR leukemia = test system: SR leukemia
LOX IMVI melanoma = test system: LOX IMVI melanoma
M14 melanoma = test system: M14 melanoma
HOP-62 NSCLC = test system: HOP-62 NSCLC
OVCAR-5 ovarian = test system: OVCAR-5 ovarian
SNB-75 CNS = test system: SNB-75 CNS
HL-60(TB) leukemia = test system: HL-60(TB) leukemia
SK-MEL-5 melanoma = test system: SK-MEL-5 melanoma
UACC-62 melanoma = test system: UACC-62 melanoma
SF-539 CNS = test system: SF-539 CNS
K-562 leukemia = test system: K-562 leukemia
SF-268 CNS = test system: SF-268 CNS
SF-295 CNS = test system: SF-295 CNS
MOLT-4 leukemia = test system: MOLT-4 leukemia
NCI-H522 lung = test system: NCI-H522 lung

For `CC(C)=CCc1ccc2[nH]c3c(c2c1)C(=O)C(=O)C(C)=C3C(O)C(C)O` (stereo unspecified), the TGI (NCI-H226 lung) was 34.2 µM, the TGI (OVCAR-8 ovarian) was 3.91 µM and the TGI (SN12C renal) was 45.8 µM. The TGI (A549 NSCLC) was 56.5 µM, the TGI (RXF 393 renal) was 4.68 µM and the TGI (UO-31 renal) was 2960 nM. It also gave a TGI (HT29 colon) of 35.1 µM, a TGI (DU-145 prostate) of 22.4 µM and a TGI (NCI-H23 lung) of 31.8 µM. For the same compound, the TGI (MALME-3M melanoma) was 3.37 µM, the TGI (CAKI-1 renal) was 11.5 µM and the TGI (HCT-15 colon) was 16.3 µM. It also gave a TGI (COLO 205 colon) of 4.89 µM, a TGI (KM12 colon) of 30.1 µM and a TGI (PC-3 prostate) of 43.4 µM. For the same compound, the TGI (U251 CNS) was 13.2 µM, the TGI (NCI/ADR-RES ovarian) was over 85.4 µM and the TGI (A498 renal) was 25.8 µM. The TGI (T-47D breast) was 6.11 µM, the TGI (MDA-MB-231 breast) was 15.8 µM and the TGI (MDA-N) was 19.7 µM. For the same compound, the TGI (RPMI-8226 leukemia) was 6.17 µM, the TGI (HCT-116 colon) was 3.43 µM and the TGI (OVCAR-4 ovarian) was 13.2 µM. For the same compound, the TGI (NCI-H460 lung) was 37.2 µM, the TGI (CCRF-CEM leukemia) was 4.98 µM and the TGI (SK-MEL-2 melanoma) was over 82.9 µM. For the same compound, the TGI (SW-620 colon) was 4.7 µM, the TGI (TK-10 renal) was 4.76 µM and the TGI (SK-MEL-28 melanoma) was 28.1 µM. For the same compound, the TGI (HCC-2998 colon) was 14.8 µM, the TGI (MDA-MB-435) was 9.57 µM and the TGI (MCF7 breast) was 3.4 µM. The TGI (OVCAR-3 ovarian) was 13 µM, the TGI (786-0 renal) was 3.27 µM and the TGI (UACC-257 melanoma) was 3.71 µM. For the same compound, the TGI (SK-OV-3 ovarian) was 29.7 µM, the TGI (SNB-19 CNS) was 31 µM and the TGI (HOP-92 NSCLC) was 3.51 µM. The TGI (HS 578T breast) was 50.1 µM, the TGI (EKVX NSCLC) was 30.1 µM and the TGI (ACHN renal) was 11.5 µM. For the same compound, the TGI (IGROV1 ovarian) was 7.2 µM, the TGI (SR leukemia) was 12.4 µM and the TGI (LOX IMVI melanoma) was 4.73 µM. The TGI (M14 melanoma) was 3.9 µM, the TGI (HOP-62 NSCLC) was 37.8 µM and the TGI (OVCAR-5 ovarian) was 34.2 µM. For the same compound, the TGI (SNB-75 CNS) was 34.1 µM, the TGI (HL-60(TB) leukemia) was 2530 nM and the TGI (SK-MEL-5 melanoma) was 7.22 µM. For the same compound, the TGI (UACC-62 melanoma) was 11.6 µM, the TGI (SF-539 CNS) was 34 µM and the TGI (K-562 leukemia) was 5.78 µM. It also gave a TGI (SF-268 CNS) of 25 µM, a TGI (SF-295 CNS) of 25 µM and a TGI (MOLT-4 leukemia) of 4.83 µM.
For `CN1N=C(c2ccncc2)OC1c1ccc(Cl)cc1Cl` (stereo unspecified), the TGI (NCI-H226 lung) was 84.2 µM, the TGI (OVCAR-8 ovarian) was over 100 µM and the TGI (SN12C renal) was over 100 µM. The TGI (A549 NSCLC) was over 100 µM, the TGI (RXF 393 renal) was over 100 µM and the TGI (UO-31 renal) was over 100000 nM. The TGI (HT29 colon) was over 100 µM, the TGI (DU-145 prostate) was over 100 µM and the TGI (NCI-H23 lung) was over 100 µM. It also gave a TGI (HCT-15 colon) of over 100 µM, a TGI (COLO 205 colon) of over 100 µM and a TGI (NCI-H522 lung) of over 100 µM. The TGI (KM12 colon) was over 100 µM, the TGI (PC-3 prostate) was over 100 µM and the TGI (U251 CNS) was over 100 µM. The TGI (NCI/ADR-RES ovarian) was over 100 µM, the TGI (A498 renal) was over 100 µM and the TGI (T-47D breast) was over 100 µM. The TGI (MDA-MB-231 breast) was over 100 µM, the TGI (MDA-N) was over 100 µM and the TGI (RPMI-8226 leukemia) was over 100 µM. The TGI (HCT-116 colon) was over 100 µM, the TGI (OVCAR-4 ovarian) was over 100 µM and the TGI (NCI-H460 lung) was over 100 µM. The TGI (CCRF-CEM leukemia) was over 100 µM, the TGI (SK-MEL-2 melanoma) was over 100 µM and the TGI (SW-620 colon) was over 100 µM. For the same compound, the TGI (TK-10 renal) was over 100 µM, the TGI (SK-MEL-28 melanoma) was over 100 µM and the TGI (HCC-2998 colon) was over 100 µM. For the same compound, the TGI (MDA-MB-435) was over 100 µM, the TGI (MCF7 breast) was over 100 µM and the TGI (OVCAR-3 ovarian) was over 100 µM. It also gave a TGI (786-0 renal) of over 100 µM, a TGI (UACC-257 melanoma) of over 100 µM and a TGI (SK-OV-3 ovarian) of over 100 µM. For the same compound, the TGI (SNB-19 CNS) was over 100 µM, the TGI (HS 578T breast) was over 100 µM and the TGI (EKVX NSCLC) was over 100 µM. The TGI (ACHN renal) was over 100 µM, the TGI (IGROV1 ovarian) was over 100 µM and the TGI (LOX IMVI melanoma) was over 100 µM. It also gave a TGI (M14 melanoma) of over 100 µM, a TGI (HOP-62 NSCLC) of over 100 µM and a TGI (OVCAR-5 ovarian) of over 100 µM. The TGI (SNB-75 CNS) was 55.6 µM, the TGI (HL-60(TB) leukemia) was over 100000 nM and the TGI (SK-MEL-5 melanoma) was over 100 µM. The TGI (UACC-62 melanoma) was 76.5 µM, the TGI (SF-539 CNS) was over 100 µM and the TGI (K-562 leukemia) was over 100 µM. The TGI (SF-268 CNS) was over 100 µM, the TGI (SF-295 CNS) was over 100 µM and the TGI (MOLT-4 leukemia) was over 100 µM.

— PubChem BioAssay (NCI)
